Key:
colorectal cancer cells [1] = assay: Neutral comet assay; format: cell-based, human; settings: 25 µM
Description: The assay was conducted as described in [20]. Cancer cells (2–3 × 10^5) were cultured in 6-well plates and treated with DMSO or NK-A 17E-233I (25 µM) for 1 or 24 h. After treatment, the cells were harvested and suspended in Comet Low Melting Agarose (LMA; Trevigen). Once the LMA solidified, the glass slides (CometSlide) were placed in a cell lysis buffer at 4 °C overnight. Electrophoresis was performed using a comet assay electrophoresis system (21 V for 40 min). The slides were subsequently washed and stained with SYBR® Gold dye (Invitrogen) in the dark for 30 min. DNA migration was observed using a fluorescence microscope (AF6000, Leica) equipped with a HCX PL APO 63x (NA = 1.4) oil objective. Comet tail lengths were measured with ImageJ/FIJI, analyzing over 100 cells per each condition.

SW620 cells [2] = assay: Mitochondrial respiration (OCR) in intact cells; format: cell-based, human; settings: 24 h
Description: Oxygen consumption rate (OCR) was measured using a high-resolution respirometer (Oxygraph-2k, Oroboros Instruments, Innsbruck, Austria). SW620 cells (2.2 × 10^6) were cultured in 100-mm Petri dishes and treated with DMSO or NK-A 17E-233I (25 µM) for 24 h. Cells were harvested at 80% confluency using 0.25% trypsin/EDTA and resuspended in complete DMEM at a concentration of 5 × 10^5 cells/mL. The cells were subsequently analyzed in two 2 mL Oxygraph chambers. Real-time measurements of OCR were conducted at 37 °C under basal conditions and following the sequential addition of inhibitors targeting various mitochondrial respiratory complexes: oligomycin (2.5 μM) to inhibit complex V (to assess ATP-linked respiration and leak rate), carbonyl cyanide-p-trifluoromethoxyphenylhydrazone (FCCP) with stepwise titration in 0.5 μM increments (to evaluate maximal electron transport system respiratory capacity and reserve capacity), and rotenone (0.5 μM) and antimycin A (2.5 μM) to inhibit complex I and complex III, respectively (to measure non-mitochondrial oxygen consumption). The values of OCR were normalized to mitochondrial DNA copy number, which was quantified by qPCR using the primers referenced above. Data analysis was performed using DatLab7 (Oroboros, Austria) software.

colorectal cancer cells [3] = assay: Annexin V-FITC/PI double staining; format: cell-based, human; settings: 25 µM
Description: Cells were harvested as described in the flow cytometry-based cell cycle analysis section. The supernatant was discarded, and the cells were resuspended in 100 μL of cold Annexin buffer (pH 7.4) composed of 18 mL distilled water, 5.5 mg CaCl2, 164 mg NaCl, and 2 mL of 100 mM HEPES. A 1:1 mixture of Annexin V (#130–097-928; Miltenyi Biotec) and propidium iodide (PI, 1 mg/mL) was added to all tubes and incubated in the dark at room temperature for 20 min. Annexin buffer was added, and the samples were analyzed using a CytoFLEX within 1 h. CytExpert and FlowJo software were utilized for data acquisition and analysis.

DHODH R136C = target: T1, DHODH R136C (Homo sapiens, UniProt Q02127, R135C); assay: In vitro DHODH enzyme activity assay; format: biochemical; settings: 1 mM DHO
T1 construct: made in house
Description: (§1) The assays to determine the inhibition constants of inhibitors of the recombinant DHODH enzymes are described in [28, 29].
(§2) The IC50 values were determined by fitting the equation V = V max/(1 + (I/IC50)^h) to the assay data using SigmaPlot14 (Systat Software Inc.). In this equation, V represents the measured enzyme activity, while V max indicates the maximum enzyme activity reached. I denotes the inhibitor concentration, and h describes the slope of the fitted curve.

Δ29 DHODH (N-truncated) = target: T2, Δ29 DHODH (N-truncated) (Homo sapiens, UniProt Q02127); assay: In vitro DHODH enzyme activity assay; format: biochemical; settings: 1 mM DHO
T2 construct: N-terminal truncated form of human DHODH (Δ29), where the N-terminal transmembrane domain was removed; made in house
Description: as §1, §2

colorectal cancer cells [4] = assay: Intracellular ATP levels (CellTiter-Glo); format: cell-based, human; settings: 25 µM
Description: Luminescence readings were recorded with a Victor Multilabel Plate Reader (PerkinElmer Life Sciences, Massachusetts, USA).

SW620 cells [5] = assay: Intracellular nucleotides, orotate and DHO by HPLC–MS/MS; format: cell-based, human; settings: 25 µM, 24 h
Description: Cancer cells (2.2 × 10^6) were cultured in 100-mm Petri dishes and treated with DMSO or NK-A 17E-233I (25 µM) for 24 h. Nucleotides and related compounds were extracted from cell pellets by treatment with 0.5 M trichloroacetic acid (TCA) followed by neutralization and solvent evaporation as detailed in [30]. Dry extracts were stored at -70°C until further analysis. Protein pellets sedimented after TCA precipitation were re-dissolved in 1 mL of 100 mM NaOH, 5% SDS by incubation at 95 °C for 5 min, followed by complete re-dissolution through several syringe strokes with a 23G needle. The concentration of the re-dissolved protein was quantified using the Pierce™ BCA Protein Assay Kit (Thermo Fisher Scientific), with the amount of the metabolites referenced to protein content.
On the day of metabolite analysis, the dry extracts were re-dissolved in 150 µL of water. Nucleotides, DHO and orotate concentrations were determined using HPLC–MS/MS using Acquity UPLC-Xevo™ TQ Mass Spectrometer (Waters, MA, USA), following the methodology described in [30]. The m/z transitions for DHO and orotate were 156.87 > 113.09 and 154.90 > 111.00, respectively. The identification of all compounds was based on retention time and specific ion transitions. The calibration curves generated with aqueous standards were processed concurrently, and the concentrations were derived from peak area interpolation using TargetLynx software (Waters, MA, USA).

SW620 cells [6] = assay: RNA sequencing (RNASeq); format: cell-based, human; settings: 25 µM, 48 h
Description: Cancer cells (2.2 × 10^6) were cultured in 100-mm Petri dishes and treated with either DMSO or NK-A 17E-233I (25 µM) for a duration of 48 h. Dry cell pellets were collected from three independent biological replicates and submitted to Novogene for RNASeq analysis (Cambridge, UK). The raw data are available in detail at the Zenodo repository (10.5281/zenodo.14833856).

[7] = median [Minimum – Maximum], five experiments
[8] = median [Minimum – Maximum], four experiments

T1 sequence (Q02127 whole entry R135C): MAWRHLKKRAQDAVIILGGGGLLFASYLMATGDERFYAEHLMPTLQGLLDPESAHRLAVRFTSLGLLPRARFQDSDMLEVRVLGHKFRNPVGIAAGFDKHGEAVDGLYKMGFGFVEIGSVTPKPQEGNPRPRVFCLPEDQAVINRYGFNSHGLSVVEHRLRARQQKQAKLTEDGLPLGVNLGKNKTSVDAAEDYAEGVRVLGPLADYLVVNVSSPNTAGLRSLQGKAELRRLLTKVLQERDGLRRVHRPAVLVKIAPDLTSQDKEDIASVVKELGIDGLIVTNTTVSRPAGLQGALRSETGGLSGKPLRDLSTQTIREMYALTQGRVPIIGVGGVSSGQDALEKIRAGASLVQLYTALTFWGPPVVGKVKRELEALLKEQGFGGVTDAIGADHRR
T2 sequence (Q02127 29-395, stated change not applied): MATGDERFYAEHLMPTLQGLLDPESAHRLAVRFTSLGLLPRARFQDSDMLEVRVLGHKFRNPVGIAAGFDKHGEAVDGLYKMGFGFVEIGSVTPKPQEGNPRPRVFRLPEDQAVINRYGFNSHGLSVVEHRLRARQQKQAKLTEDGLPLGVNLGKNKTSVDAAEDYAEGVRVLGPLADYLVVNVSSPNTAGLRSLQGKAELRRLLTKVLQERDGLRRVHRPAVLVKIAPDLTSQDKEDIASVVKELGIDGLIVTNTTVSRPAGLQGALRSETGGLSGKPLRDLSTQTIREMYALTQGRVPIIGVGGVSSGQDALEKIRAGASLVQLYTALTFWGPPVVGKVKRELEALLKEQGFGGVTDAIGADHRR

COc1cc(C)c(Oc2cc(C)cc(O)c2O)c(O)c1 [NK-A 17E-233I] was tested, and the “comet tails (DNA double-strand breaks)” value (colorectal cancer cells [1]) was “longer comet tails”, the maximal respiration (SW620 cells [2]; 25 µM) was “significantly decreased” and the “basal and ATP-linked respiration in intact cells” value (SW620 cells [2]; NK-A 17E-233I 25 µM, Brequinar 100 µM) was “retained basal respiration”. The “late-apoptotic cells (Annexin V-FITC)” value (colorectal cancer cells [3]; 48 h) was “significantly increased”, the “apoptosis with pan-caspase inhibitor Z-VAD-FMK” value (colorectal cancer cells [3]; Z-VAD-FMK 10 µM, 24 h) was “abolished its activity” and the IC50 (DHODH R136C; mean ± SD (n = 3)) was 48.6 ± 30.8 µM. The “average of the fitted slopes” value (DHODH R136C; ± SD) was 0.6 ± 0.2, the IC50 (Δ29 DHODH (N-truncated); mean ± SD (n = 3)) was 99.1 ± 47.8 µM and the “average of the fitted slopes” value (Δ29 DHODH (N-truncated); ± SD) was 1 ± 0.8. For the same molecule, the “ATP production / proliferation with non-physiological uridine” value (colorectal cancer cells [4]; 200 µM uridine, various time points) was “did not impact the production of ATP or cancer cell proliferation”, the “levels of ATP” value (colorectal cancer cells [4]; up to 24 h) was “reduced” and the “levels of purine nucleotides” value (SW620 cells [5]) was “remained unchanged”. The ADP amount (SW620 cells [5]; [7]) was 7,917 [5,048–9,389] pmoles/mg protein, the “AMP + ADP + ATP amount” value (SW620 cells [5]; [7]) was 26,257 [24,352 – 27,848] pmoles/mg protein and the AMP amount (SW620 cells [5]; [7]) was 961 [405–2,739] pmoles/mg protein. The ATP amount (SW620 cells [5]; [7]) was 15,907 [14,173–21,694] pmoles/mg protein, the CDP amount (SW620 cells [5]; [7]) was 351 [143–504] pmoles/mg protein and the “CMP + CDP + CTP amount” value (SW620 cells [5]; [7]) was 6,327 [6,028 – 10,285] pmoles/mg protein. The CMP amount (SW620 cells [5]; [7]) was 263 [220–707] pmoles/mg protein, the CTP amount (SW620 cells [5]; [7]) was 5,801 [5,142–9,519] pmoles/mg protein and the GDP amount (SW620 cells [5]; [7]) was 1,339 [1,008–1,566] pmoles/mg protein. For the same molecule, the “GMP + GDP + GTP amount” value (SW620 cells [5]; [7]) was 5,228 [4,902 – 7,797] pmoles/mg protein, the GTP amount (SW620 cells [5]; [7]) was 3,565 [3,407–6,418] pmoles/mg protein and the UDP amount (SW620 cells [5]; [7]) was 927 [867–1,161] pmoles/mg protein. The UMP amount (SW620 cells [5]; [7]) was 335 [81–424] pmoles/mg protein, the UTP amount (SW620 cells [5]; [7]) was 4,013 [3,397–6,651] pmoles/mg protein and the GMP amount (SW620 cells [5]; median [Minimum – Maximum], five experiments, undetectable treated as zero) was 156 [0–268] pmoles/mg protein. The DHO amount (SW620 cells [5]; [8]) was 26.5 [18.3–228.5] pmoles/mg protein, the Orotate amount (SW620 cells [5]; [8]) was 70.5 [61.7–137.1] pmoles/mg protein and the “POLD2 gene expression (RNASeq)” value (SW620 cells [6]) was “significantly downregulated”.
